Experiment [1] in a line: Inhibition of hypoxia-induced HIF1alpha/P300-CBP interaction mediated gene transcriptional activity in human HeLa cells co-transfected with luciferase reporter plasmid containing HRE and pRL-CMV vector incubated for 12 hrs under hypoxic condition by HRE-dependent dual luciferase reporter gene assay. The class given is cell-based.
Experiment [2] deals with HeLa. The experiment in a line: Antiproliferative activity against human HeLa cells assessed as reduction in cell proliferation measured after 48 hrs by MTT assay. The class given is functional, cell-based.
Experiment [3] relates to HCT-116. Put plainly: Antiproliferative activity against human HCT-116 cells assessed as reduction in cell proliferation measured after 2 days by MTT assay. The class given is functional, cell-based. The conditions noted are these: HCT-116, 48 h.
The test system of experiment [4] is DMS-114. The experiment in a line: Antiproliferative activity against human DMS-114 cells assessed as reduction in cell proliferation measured after 2 days by MTT assay. The class given is functional, cell-based. The conditions noted are these: DMS-114, 48 h. (Formazan colour is commonly taken as a measure of viable cells.)
For experiment [5], the system named is HeLa. The experiment in a line: Cytotoxicity against human HeLa cells co-transfected with luciferase reporter plasmid containing HRE and pRL-CMV vector incubated for 12 hrs under hypoxic condition by MTT assay. The class given is cell-based.

For the compound `OCc1ccc(-c2nn(Cc3ccccc3)c3ccccc23)o1`, in experiment [1], the 50% inhibitory concentration (IC50) is 1 µM.
As to `CC(C)CCN1C/C=C/CCN(CCCc2ccccc2)C(=O)CN[C@@H](C)C(=O)N[C@@H](CC(C)C)C1=O`, the IC50 in experiment [1] was 13.7 µM; in experiment [2], 71.2 µM; in experiment [3] it was 33.3 µM; in experiment [4] it was 48.9 µM; in experiment [5] it was greater than 50 µM.
Consider `CC(C)CCN1C/C=C/CN(CCCc2ccccc2)C(=O)CN[C@@H](C)C(=O)N[C@@H](CC(C)C)C1=O`, for which the IC50 in experiment [1] is 16.3 µM; in experiment [2] it was 97.1 µM; in experiment [3] it was 25.1 µM; in experiment [4], 32.2 µM; in experiment [5] it was greater than 50 µM.
Regarding `CC(C)CCC(=O)N1C/C=C/CN(CCC(C)C)C(=O)[C@H](CC(C)C)NC(=O)[C@H](C)NC(=O)C1`, the IC50 in experiment [1] was greater than 33 µM; in experiment [2] it was greater than 100 µM; in experiment [3], greater than 90 µM; in experiment [4] it was greater than 90 µM; in experiment [5] it was greater than 50 µM.
With `CC(C)CCC(=O)N1CCCCN(CCC(C)C)C(=O)[C@H](CC(C)C)NC(=O)[C@H](C)NC(=O)C1`, the IC50 is greater than 33 µM in experiment [1]; greater than 100 µM in experiment [2]; 83.8 µM in experiment [3]; greater than 90 µM in experiment [4]; greater than 50 µM in experiment [5].
In the same order, the values of `CC(C)CCN1C/C=C/CN(CCCc2ccccc2)C(=O)CN2CCC[C@H]2C(=O)N[C@@H](CC(C)C)C1=O` are 13.8 µM, 54 µM, 17.1 µM, 20.9 µM and greater than 50 µM.
Take `CC(C)CCN1CCCCCN(CCCc2ccccc2)C(=O)CN[C@@H](C)C(=O)N[C@@H](CC(C)C)C1=O`: the IC50 was 8.7 µM in experiment [1]; 55.5 µM in experiment [2]; 34.3 µM in experiment [3]; 49 µM in experiment [4]; greater than 50 µM in experiment [5].
With `CC(C)CCN1CCCCN(CCCc2ccccc2)C(=O)CN2CCC[C@H]2C(=O)N[C@@H](CC(C)C)C1=O`, the IC50 in experiment [1] was 9.5 µM; in experiment [2], 66.4 µM; in experiment [3] it was 12.3 µM; in experiment [4], 17.3 µM; in experiment [5], greater than 50 µM.
In the same order, the values of `CC(C)CCN1CCCCN(CCCc2ccccc2)C(=O)CN[C@@H](C)C(=O)N[C@@H](CC(C)C)C1=O` are 9.96 µM, 58.9 µM, 34.8 µM, 45 µM and greater than 50 µM.

In general, IC50 refers to the concentration at which inhibition is half-maximal.

Source of the values: ChEMBL document CHEMBL4680325, “Design and synthesis of 14 and 15-membered macrocyclic scaffolds exhibiting inhibitory activities of hypoxia-inducible factor 1α” (Bioorg Med Chem, 2021).
